Results reported in ChEMBL document CHEMBL5512623, “Discovery of the novel and potent histamine H1 receptor antagonists for treatment of allergic diseases” (Eur J Med Chem, 2024).

Tests used:
[1] = target: Muscarinic acetylcholine receptor M3 (Homo sapiens, UniProt P20309); assay: Antagonist activity at human muscarinic M3 receptor expressed in PathHunter U2OS CHRM3 beta-arrestin cells preincubated for 30 mins followed by agonist addition at 6 times EC80 and measured after 90 to 180 mins by PathHunter assay; type: functional, cell-based
Muscarinic acetylcholine receptor M3, sequence (P20309 whole entry): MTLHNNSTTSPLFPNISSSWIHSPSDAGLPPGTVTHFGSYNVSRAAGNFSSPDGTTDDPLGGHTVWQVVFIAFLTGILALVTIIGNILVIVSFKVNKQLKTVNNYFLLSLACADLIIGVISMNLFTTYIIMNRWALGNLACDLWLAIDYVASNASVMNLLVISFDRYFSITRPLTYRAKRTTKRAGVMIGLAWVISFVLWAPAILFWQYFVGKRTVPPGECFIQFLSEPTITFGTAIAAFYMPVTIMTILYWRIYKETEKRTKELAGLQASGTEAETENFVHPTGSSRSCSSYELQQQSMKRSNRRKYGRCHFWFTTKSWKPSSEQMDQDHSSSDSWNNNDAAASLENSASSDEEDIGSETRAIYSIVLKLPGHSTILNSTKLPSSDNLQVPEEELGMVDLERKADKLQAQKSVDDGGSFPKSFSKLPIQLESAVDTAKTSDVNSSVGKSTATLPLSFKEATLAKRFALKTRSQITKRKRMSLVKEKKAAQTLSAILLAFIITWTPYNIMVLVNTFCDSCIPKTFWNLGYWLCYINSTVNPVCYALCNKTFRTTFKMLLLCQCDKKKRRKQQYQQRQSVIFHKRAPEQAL

[2] = target: Voltage-gated inwardly rectifying potassium channel KCNH2 (Homo sapiens, UniProt Q12809); assay: Inhibition of hERG in HEK293 cells measured after 5 mins by patch-clamp assay
Voltage-gated inwardly rectifying potassium channel KCNH2, sequence (Q12809 whole entry): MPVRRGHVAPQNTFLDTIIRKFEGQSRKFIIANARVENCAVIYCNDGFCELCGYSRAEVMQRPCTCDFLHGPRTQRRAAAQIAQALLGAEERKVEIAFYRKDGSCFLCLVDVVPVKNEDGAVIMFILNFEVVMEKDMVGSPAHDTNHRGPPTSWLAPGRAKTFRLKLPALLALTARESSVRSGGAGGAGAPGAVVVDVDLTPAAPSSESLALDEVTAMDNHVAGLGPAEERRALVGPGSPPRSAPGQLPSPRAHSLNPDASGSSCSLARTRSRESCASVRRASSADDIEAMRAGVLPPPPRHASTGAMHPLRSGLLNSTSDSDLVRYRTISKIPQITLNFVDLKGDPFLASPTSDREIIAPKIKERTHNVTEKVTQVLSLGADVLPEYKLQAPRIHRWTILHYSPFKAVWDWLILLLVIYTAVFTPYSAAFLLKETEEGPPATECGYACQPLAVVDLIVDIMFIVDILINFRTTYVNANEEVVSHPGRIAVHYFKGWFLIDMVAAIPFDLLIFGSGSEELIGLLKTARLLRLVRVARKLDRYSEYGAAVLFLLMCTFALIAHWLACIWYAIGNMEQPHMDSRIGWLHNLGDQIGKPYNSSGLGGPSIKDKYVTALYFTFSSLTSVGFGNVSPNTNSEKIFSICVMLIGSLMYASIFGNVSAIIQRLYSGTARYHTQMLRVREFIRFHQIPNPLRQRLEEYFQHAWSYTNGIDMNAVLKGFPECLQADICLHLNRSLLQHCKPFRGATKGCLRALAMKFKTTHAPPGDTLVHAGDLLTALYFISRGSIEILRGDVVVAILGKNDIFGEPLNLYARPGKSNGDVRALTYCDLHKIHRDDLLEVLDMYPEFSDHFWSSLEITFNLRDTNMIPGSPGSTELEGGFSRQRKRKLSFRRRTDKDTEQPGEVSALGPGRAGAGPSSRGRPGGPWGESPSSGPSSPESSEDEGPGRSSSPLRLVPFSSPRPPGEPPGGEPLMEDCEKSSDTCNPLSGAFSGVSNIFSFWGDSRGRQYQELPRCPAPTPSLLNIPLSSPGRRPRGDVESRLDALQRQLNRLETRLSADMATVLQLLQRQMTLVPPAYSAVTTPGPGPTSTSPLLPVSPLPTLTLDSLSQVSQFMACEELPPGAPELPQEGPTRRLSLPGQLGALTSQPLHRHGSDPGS

[3] = target: Histamine H1 receptor (Homo sapiens, UniProt P35367); assay: Antagonist activity at human H1 receptor expressed in PathHunter CHO-K1 HRH1 beta-arrestin cells preincubated for 30 mins followed by agonist addition at 6 times EC80 and measured after 90 to 180 mins by PathHunter assay; type: functional, cell-based
Histamine H1 receptor, sequence (P35367 whole entry): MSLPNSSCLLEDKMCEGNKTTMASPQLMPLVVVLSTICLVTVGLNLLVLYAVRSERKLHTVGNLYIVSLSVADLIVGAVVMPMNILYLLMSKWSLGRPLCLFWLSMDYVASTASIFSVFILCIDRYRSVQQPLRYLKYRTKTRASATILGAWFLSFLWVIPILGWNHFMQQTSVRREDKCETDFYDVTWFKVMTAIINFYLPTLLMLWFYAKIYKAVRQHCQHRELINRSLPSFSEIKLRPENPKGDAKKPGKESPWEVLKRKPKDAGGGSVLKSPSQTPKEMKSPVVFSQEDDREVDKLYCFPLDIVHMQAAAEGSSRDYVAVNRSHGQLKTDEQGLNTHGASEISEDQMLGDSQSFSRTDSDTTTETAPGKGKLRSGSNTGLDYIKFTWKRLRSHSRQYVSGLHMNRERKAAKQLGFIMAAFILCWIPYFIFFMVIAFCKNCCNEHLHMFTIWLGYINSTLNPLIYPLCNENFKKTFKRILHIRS

[4] = Cmax in male Sprague-Dawley rat brain at 10 mg/kg, IG administered as single dose; type: ADME, organism-based; conditions: po
[5] = Cmax in female Sprague-Dawley rat plasma at 10 mg/kg, IG administered as single dose; type: ADME, organism-based; conditions: po
[6] = Cmax in male Sprague-Dawley rat plasma at 10 mg/kg, IG administered as single dose; type: ADME, organism-based; conditions: po
[7] = Cmax in female Sprague-Dawley rat brain at 10 mg/kg, IG administered as single dose; type: ADME, organism-based; conditions: po

For `CC(C)(C(=O)O)c1ccc(CCCN2CCC(=C3c4ccc(Cl)cc4CCc4cccnc43)CC2)cc1`, the IC50 [1] was > 10 µM and the IC50 [2] was > 30 µM.
With `CC(C)(C(=O)O)c1cccc(NCCN2CCC(=C3c4ccc(Cl)cc4CCc4cccnc43)CC2)c1` the IC50 [1] was > 10 µM.
For `O=C(CCO)N1CCC(=C2c3ccc(Cl)cc3CCc3cccnc32)CC1`, the IC50 [1] was > 10 µM.
In the case of `CC(C)(C(=O)O)c1ccc(CCCN2CCC(=C3c4ccc(Cl)cc4CCc4cccnc43)CC2)nc1`, the IC50 [1] is reported as > 10 µM.
With `O=C(O)CC(O)CN1CCC(=C2c3ccc(Cl)cc3CCc3cccnc32)CC1` (centres undefined) the IC50 [3] was 0.126 µM, the IC50 [1] was > 10 µM and the IC50 [2] was > 30 µM.
With `Clc1ccc2c(c1)CCc1cccnc1C2=C1CCNCC1` [DESLORATADINE] the Cmax [4] was 843 ng/g, the Cmax [5] was 549 ng/g and the Cmax [6] was 112 ng/g. It also gave a Cmax [7] of 1180 ng/g.
For `CC(C)(C(=O)O)c1ccccc1CCCN1CCC(=C2c3ccc(Cl)cc3CCc3cccnc32)CC1`, the IC50 [1] was > 10 µM.
For `O=C(O)c1ccc(CCCN2CCC(=C3c4ccc(Cl)cc4CCc4cccnc43)CC2)cc1`, the IC50 [1] was > 10 µM.
